Consider two compounds from US6641848B1, “Saponin or sapogenol compositions for increasing collagen IV synthesis” (Parfums Christian Dior, priority 1998, dated 2003).

Test [1] has as its system collagen IV. The test can be described thus: Amount of collagen IV in normal human keratinocyte culture (ELISA), soya saponins with beta-ecdysone, 48 h. The following applies: beta-ecdysone alone, same experiment. The test is classed as cell-based. As to the method:
(§1) The cultures of normal human keratinocytes (NHK) are grown from a surgical specimen of healthy skin. In the present study, the tests were carried out on a strain of cells, denoted by HK 44, originating from a facelift performed on a person.
The keratinocytes are cultured in K-SFM growth medium, which is a complete specific keratinocyte culture medium (SFM=serum free medium) complemented with EGF (epidermal growth factor) and pituitary extract, said medium being marketed by Gibco, France. The cells were subcultured once from the primary culture in one passage, denoted by P1.
The cells are inoculated in 96-well culture plates at a rate of 25,000 NHK per well in K-SFM. After 24 h of incubation, which is necessary for good adhesion of the cells, the inoculation medium is withdrawn and replaced with K-SFM diluted 50-fold in the same base medium, but devoid of EGF and pituitary extract. […]
The controls will receive the same amount of DMSO solvent as for the product tested at a final concentration of 0.1%.
The culture supernatants are recovered for carrying out an ELISA, as explained below.
The protocol for assaying the collagen IV by an ELISA method is adapted from that described by DUMAS M. et al. in Mechanisms of Ageing and Development, 1994, 73, pages 179-187. […]
(§2) The activity A of the product is expressed as a percentage and corresponds to the following formula: [formula] […]
For orientation: In an ELISA, binding on a coated surface is turned into a signal by an enzyme label.

Test [2] relates to collagen IV. The test can be described thus: Amount of collagen IV in normal human keratinocyte culture (ELISA), soya seed saponins, 72 h. The class given is cell-based. The following applies: 10 ng/ml. The protocol:
A soya seed extract commercially available under the reference SOY SELECT LOT 26040/2 from the Italian company Indena is used in this Example.
According to the marketing information, this extract contains saponins of the “soya saponin” category in a proportion of 29 to 30% by dry weight, with a predominance of group B soya sapogenols.
To validate the pertinence of the chosen experimental protocol, a series of these tests was carried out with a positive control, namely transforming growth factor beta (TGF-beta), which is known to increase the amount of collagen IV in a culture of human keratinocytes. Reference may be made to the article by Köning A. and Bruckner-Tuderman L., J. Cell. Biol., May 1992, 117(3), 679-85.
as §1
The keratinocytes are cultured in K-SFM growth medium, which is a complete specific keratinocyte culture medium (SFM=serum free medium) complemented with EGF (epidermal growth factor) and pituitary extract, said medium being marketed by Gibco, France. […]
as §2

As for `CC(C)(O)CC[C@@H](O)[C@](C)(O)[C@H]1CC[C@@]2(O)C3=CC(=O)[C@@H]4C[C@@H](O)[C@@H](O)C[C@]4(C)[C@H]3CC[C@]12C` [beta-ecdysone], the “increase in the amount of collagen IV” value with collagen IV [1] was “No increase”. Turning to “transforming growth factor beta [TGF-beta]”, the “Q (ng collagen IV/100 μg proteins; at 72 h)” value in the test with collagen IV [2] (NHK strain HK 44) is reported as 5.615 ± 0.595 ng collagen IV/100 μg proteins. For the same compound, in the test with collagen IV [2] (vs DMSO control), the “A (%)” value is reported as “+50%”.
